The source of these data is patent publication US20110059956A1, “THERAPEUTIC AGENT FOR PAIN” (ZERIA PHARMACEUTICAL CO., LTD., priority 2008, published 2011).

Experiment [1] concerns allodynia in B16-BL6 melanoma cancer pain model. In words: cancer pain model (B16-BL6 melanoma transplanted into paw), von Frey pain threshold, single administration. It is filed as in vivo, mouse. The conditions noted are these: peroral single administration 100 mg/kg on day 14 after cancer transplantation; FIG. 1. From the text:
Then, the change in pain threshold was monitored. Compound (A1) was suspended in 0.5% CMC-Na solution before administration.

For a further experiment, the system named is cancer pain. The note with it: clinical, combination with morphine; Non-Patent Document 10; cited from earlier work.
Experiment [2] concerns nociceptive pain triggered by formalin. The conditions noted are these: cited from earlier work; for analgesic effect, sole use: Non-Patent Document 11.
Experiment [3] has as its system nociceptive pain caused by thermal stimulation. The conditions noted are these: cited from earlier work; for generation of morphine resistance: mouse, thermal stimulation, Non-Patent Documents 5 and 6.
Experiment [4] has as its system allodynia in B16-BL6 melanoma cancer pain model. The experiment is described as follows: cancer pain model (B16-BL6 melanoma), von Frey pain threshold, repeated administration. In kind it is in vivo, mouse. The note with it: 100 mg/kg orally once a day for eight days from day 7 after cancer transplantation; FIG. 2. On the procedure:
From day 7 after cancer transplantation, compound (A1) or L-365,260 (CCK2 receptor antagonist) (100 mg/kg) was orally administered once a day for eight days repeatedly, and the change in pain threshold was monitored. […] On day 7 after cancer transplantation, allodynia occurred, and a considerable drop in pain threshold occurred on day 14 after cancer transplantation.

Experiment [5] relates to nociceptive pain caused by thermal stimulation. The conditions noted are these: Non-Patent Document 7, cited from earlier work.
For another experiment, the system named is neuropathic pain. The note with it: cited from earlier work.
In a further experiment the test system is thermal hyperalgesia. The conditions noted are these: Non-Patent Document 12; cited from earlier work.
For another experiment, the system named is pancreatic cancer. The conditions noted are these: Non-Patent Document 15, cited from earlier work.

Each structure is given as a SMILES string. Where a name gives a salt, the structure may show the parent alone. Read-outs that look alike come from different tables or passages of the source.

`CCCN(CCC)C(=O)C(CCC(=O)O)NC(=O)c1ccccc1` (stereo not drawn) [proglumide]: the “change in pain threshold / improvement of allodynia” value in experiment [1] is “no effect on improvement of allodynia”. Further, the “analgesic effect of morphine on cancer pain” value in the experiment on cancer pain was “potentiates the analgesic effect of morphine”. The “analgesic effect, sole use” value in experiment [2] is given as “exhibits the analgesic effect”.

In the case of `C[C@](Cc1c[nH]c2ccccc12)(NC(=O)OC1[C@H]2C[C@@H]3C[C@@H](C[C@H]1C3)C2)C(=O)NC[C@H](NC(=O)CCC(=O)O)c1ccccc1` (stereo partly drawn) [CI-988], the “generation of morphine resistance” value in experiment [3] was “suppress generation of morphine resistance”. Further, the “analgesic effect of morphine on nociceptive pain” value in [2] (combination with morphine, Non-Patent Document 8) was “potentiates the analgesic effect of morphine”.

`Cc1cccc(NC(=O)N[C@@H]2N=C(c3ccccc3)c3ccccc3N(C)C2=O)c1` [L-365,260]: the “change in pain threshold / improvement of allodynia” value in experiment [4] is listed as “no effect on improvement of allodynia was observed”; in experiment [1] it was “no effect on improvement of allodynia”. For the same molecule, the “analgesic effect of morphine on nociceptive pain” value in [5] (combination with morphine) was “potentiates the analgesic effect of morphine”. Further, the “analgesic effect, single use” value is given as “exhibits no analgesic effect” in experiment [5] (single use); “exhibits no analgesic effect” in [3] (single use, Non-Patent Document 13); “exhibits no analgesic effect” in the experiment with neuropathic pain (single use, Non-Patent Document 9). For the same molecule, the “generation of morphine resistance” value in experiment [3] is “suppress generation of morphine resistance”; in the experiment on neuropathic pain (rat neuropathic pain model, Non-Patent Document 4), “suppress generation of morphine resistance”. The “analgesic effect of morphine on allodynia” value with neuropathic pain (combination with morphine, Non-Patent Document 9) was “potentiates the analgesic effect of morphine”. Further, the “analgesic effect, sole use” value in experiment [2] is listed as “exhibits the analgesic effect”.

In the case of `Cc1cccc(NC(=O)N[C@@H]2N=C(c3ccccc3)c3ccccc3N(CC(=O)c3ccccc3C)C2=O)c1` [YM022], in the experiment on thermal hyperalgesia, the “analgesic effect, sole use, on thermal hyperalgesia” value is on record as “an analgesic effect”.

Turning to `Nc1ccn([C@@H]2O[C@H](CO)[C@@H](O)C2(F)F)c(=O)n1` [gemcitabine hydrochloride], the pain relief effect entry in the experiment on pancreatic cancer (pancreatic cancer patients) is given as “excellent pain relief effect”. Further, in the experiment on pancreatic cancer (pancreatic cancer), the tumor regression effect entry is listed as “comparatively weak tumor regression effect”.
